# Tests used:
# GlyT1 [1] = assay: PET measurements using a cynomolgus monkey; assay type: in vivo
# Procedure: PET measurements were performed for 123 min immediately after intravenous (i.v.) injection of radioligand at baseline and after pretreatment with SSR504734. SSR504734 was administered over 15 min, starting 30 min before the radioligand injection. PET measurements were performed on two separate days at a 6-week interval. One baseline PET measurement and one PET measurement after pretreatment with 0.1 mg/kg of SSR504734 were performed on the first day. One baseline PET measurement and two PET measurements after pretreatment with 0.5 and 1.5 mg/kg of SSR504734 were performed on the second day.
# Regions of interest (ROI) for the thalamus, cerebellum, caudate, putamen, frontal cortex, temporal cortex, anterior cingulate cortex, pons, white matter, and the whole-brain contour were delineated on PET/MRI co-registered brain images for each monkey. […] PET data were analyzed using several parameters such as percent injected dose (%ID) and percent standard uptake value (%SUV), where
# GlyT1 [2] = assay: PET measurements using rhesus monkeys, VT by two-tissue compartment model; assay type: in vivo, rhesus monkey; set-up: VT (baseline) WB / VT (baseline) THA / VT (baseline) CB / VT (baseline) CAU / VT (baseline) FC / VT (baseline) ACC / VT (baseline) TC: unit not given here; conditions: for VT (baseline) ACC / VT (baseline) CAU / VT (baseline) CB / VT (baseline) FC / VT (baseline) Pons / VT (baseline) PUT / VT (baseline) TC / VT (baseline) THA / VT (baseline) WB: 2TC
# Procedure: PET measurements were performed using a high-resolution research tomograph (CTI/Siemens Molecular Imaging, Knoxville, TN, USA) with an in-plane resolution less than 1.5 mm FWHM in the center of the FOV [30]. PET data were acquired by list mode. The data were reconstructed with a series of frames (5 × 1 min, 5 × 3 min, 5 × 6 min, and 13 × 10 min) using the Ordinary Poisson-3D-Ordered Subset Expectation Maximization (OP03D-OSEM) algorithm with 10 iterations and 16 subsets including modeling of the points spread function. Image reconstruction was performed on a quad-core PC running a fast reconstruction algorithm.
# Anesthesia was induced by intramuscular injection of ketamine hydrochloride (60 mg) and maintained by the administration of a mixture of sevoflurane, O2, and medical air after endotracheal intubation. The head was immobilized with a fixation device. Body temperature was maintained by Bair Hugger Model 505 (Arizant Healthcare, MN, USA) and monitored by an esophageal thermometer. ECG, heart rate, respiratory rate, and oxygen saturation were continuously monitored throughout the experiments. Blood pressure was monitored every 5 min.
# (§1) PET measurements were performed for 123 min immediately after i.v. injection of radioligand at baseline and after pretreatment with SSR504734. SSR504734 was administered over 15 min, starting 30 min before the radioligand injection. PET measurements were performed on two separate days with two monkeys. One baseline PET measurement and one PET measurement after pretreatment with 1.5 mg/kg of SSR504734 were performed on one monkey. One baseline PET measurement and one PET measurement after pretreatment with 4.5 mg/kg were performed on the other monkey.
# During each PET measurement, arterial blood was collected continuously for 3 min using an automated blood-sampling system at a speed of 3.0 mL/min (Allog AB, Molndal, Sweden). Blood samples (1.0 to 2.5 mL) were drawn at 4, 15, 30, 60, 90, and 120 min after the radioligand injection for blood and plasma radioactivity and metabolite correction.
# Regions of interest (ROI) for the thalamus, cerebellum, caudate, putamen, frontal cortex, temporal cortex, anterior cingulate cortex, pons, white matter, and the whole-brain contour were delineated on PET/MRI co-registered brain images for each monkey. Co-registrations and ROI delineations were performed using PMOD 3.0 (Pixel-Wise Modeling Computer Software, PMOD Group, Zurich, Switzerland). PET data were analyzed using several parameters such as percent injected dose (%ID) and percent standard uptake value (%SUV), where
# %ID=total radioactivity in the whole brain (MBq)/injected radioactivity (MBq)×100
# %SUV=radioactivity (MBq/cc)/injected radioactivity (MBq)×body weight g×100.
# In the PET measurements using rhesus monkeys, the total distribution volume (VT) was calculated by a two-tissue compartment model as well.
# GlyT1 [3] = assay: GlyT1 occupancy and VND by Lassen plot, PET in rhesus monkeys; assay type: in vivo, rhesus monkey; conditions: for % of VND in VT ACC: anterior cingulate cortex; for % of VND in VT FC: frontal cortex; for % of VND in VT PUT: putamen; for % of VND in VT TC: temporal cortex
# Procedure: as §1
# GlyT1 occupancy was estimated by applying Lassen plot approach, which can determine nondisplaceable distribution volume (VND) and occupancy using VT values at baseline and after pretreatment. Seven regions (the pons, cerebellum, putamen, frontal cortex, caudate, anterior cingulate cortex, and temporal cortex) were used for the plot.
# [4] = metabolite analysis of plasma by radio-HPLC during PET; assay type: in vivo, cynomolgus monkey
# Procedure: During each PET measurement, venous blood samples were taken from a femoral vein for the measurement of [^11 C]
# From the obtained blood samples, plasma was obtained after centrifugation at 2,000 × g for 2 to 4 min and was mixed with 1.4 times the volume of acetonitrile. The supernatant acetonitrile-plasma mixture obtained after centrifugation at 2,000 × g for 2 to 4 min was injected into the radio-HPLC system. HPLC analysis was performed on a Waters μ-Bondapak-C18 column (300 × 7.8 mm, 10 μm) by gradient elution using (a) ammonium formate (100 mM) and (b) acetonitrile at 6.0 mL/min.
# [5] = baseline + blocking (1.5 mg/kg)
# [6] = baseline + blocking (4.5 mg/kg)
structure (smiles),measurement,setting,value
"[11CH3]N1CCCCC1[C@@H](NC(=O)c1cccc(C(F)(F)F)c1Cl)c1ccccc1 (stereo partly drawn) [[^11 C]N-methyl-SSR504734, 2-chloro N-[(S)-{(S)-1-[^11 C]methylpiperidin-2-yl} (phenyl)methyl] 3-trifluoromethyl-benzamide]",rank order of regional brain uptake,GlyT1 [1]; baseline,thalamus > pons > cerebellum ≒ putamen > cortical regions > white matter
same,time of whole brain peak,"GlyT1 [1]; baseline, N = 2",24 min
same,radioactivity level in brain after pretreatment with SSR504734,"GlyT1 [1]; pretreatment 0.1 to 1.5 mg/kg SSR504734, dose-dependent",increased in all regions
same,rank order of regional brain uptake,GlyT1 [2]; baseline,thalamus > pons > putamen > frontal cortex≒temporal cortex > cerebellum> > white matter
same,uptake in the brain regions after pretreatment with SSR504734,GlyT1 [2]; pretreatment 1.5 and 4.5 mg/kg SSR504734,increase
same,VT (baseline) ACC,"GlyT1 [2]; rhesus monkey 1, anterior cingulate cortex",28.6
same,VT (Blocking (1.5 mg/kg)) ACC,"GlyT1 [2]; rhesus monkey 1, anterior cingulate cortex, after SSR504734 1.5 mg/kg",22.5
same,% decrease of VT ACC,"GlyT1 [2]; rhesus monkey 1, anterior cingulate cortex, baseline to blocking with SSR504734 1.5 mg/kg",21.3%
same,VT (baseline) CAU,"GlyT1 [2]; rhesus monkey 1, caudate",26.2
same,VT (Blocking (1.5 mg/kg)) CAU,"GlyT1 [2]; rhesus monkey 1, caudate, after SSR504734 1.5 mg/kg",22.0
same,% decrease of VT CAU,"GlyT1 [2]; rhesus monkey 1, caudate, baseline to blocking with SSR504734 1.5 mg/kg",16.0%
same,VT (baseline) CB,"GlyT1 [2]; rhesus monkey 1, cerebellum",23.7
same,VT (Blocking (1.5 mg/kg)) CB,"GlyT1 [2]; rhesus monkey 1, cerebellum, after SSR504734 1.5 mg/kg",20.4
same,% decrease of VT CB,"GlyT1 [2]; rhesus monkey 1, cerebellum, baseline to blocking with SSR504734 1.5 mg/kg",13.9%
same,VT (baseline) FC,"GlyT1 [2]; rhesus monkey 1, frontal cortex",25.2
same,VT (Blocking (1.5 mg/kg)) FC,"GlyT1 [2]; rhesus monkey 1, frontal cortex, after SSR504734 1.5 mg/kg",20.6
same,% decrease of VT FC,"GlyT1 [2]; rhesus monkey 1, frontal cortex, baseline to blocking with SSR504734 1.5 mg/kg",18.3%
same,VT (baseline) Pons,"GlyT1 [2]; rhesus monkey 1, pons",35.2
same,VT (Blocking (1.5 mg/kg)) Pons,"GlyT1 [2]; rhesus monkey 1, pons, after SSR504734 1.5 mg/kg",26.8
same,% decrease of VT Pons,"GlyT1 [2]; rhesus monkey 1, pons, baseline to blocking with SSR504734 1.5 mg/kg",23.9%
same,VT (baseline) PUT,"GlyT1 [2]; rhesus monkey 1, putamen",26.7
same,VT (Blocking (1.5 mg/kg)) PUT,"GlyT1 [2]; rhesus monkey 1, putamen, after SSR504734 1.5 mg/kg",22.8
same,% decrease of VT PUT,"GlyT1 [2]; rhesus monkey 1, putamen, baseline to blocking with SSR504734 1.5 mg/kg",14.6%
same,VT (baseline) TC,"GlyT1 [2]; rhesus monkey 1, temporal cortex",25.6
same,VT (Blocking (1.5 mg/kg)) TC,"GlyT1 [2]; rhesus monkey 1, temporal cortex, after SSR504734 1.5 mg/kg",21.8
same,% decrease of VT TC,"GlyT1 [2]; rhesus monkey 1, temporal cortex, baseline to blocking with SSR504734 1.5 mg/kg",14.8%
same,VT (baseline) THA,"GlyT1 [2]; rhesus monkey 1, thalamus",31.0
same,VT (Blocking (1.5 mg/kg)) THA,"GlyT1 [2]; rhesus monkey 1, thalamus, after SSR504734 1.5 mg/kg",29.6
same,% decrease of VT THA,"GlyT1 [2]; rhesus monkey 1, thalamus, baseline to blocking with SSR504734 1.5 mg/kg",4.5%
same,VT (baseline) WB,"GlyT1 [2]; rhesus monkey 1, whole brain",23.1
same,VT (Blocking (1.5 mg/kg)) WB,"GlyT1 [2]; rhesus monkey 1, whole brain, after SSR504734 1.5 mg/kg",18.6
same,VT (baseline) ACC,"GlyT1 [2]; rhesus monkey 2, anterior cingulate cortex",15.5
same,VT (Blocking (4.5 mg/kg)) ACC,"GlyT1 [2]; rhesus monkey 2, anterior cingulate cortex, after SSR504734 4.5 mg/kg",9.0
same,% decrease of VT ACC,"GlyT1 [2]; rhesus monkey 2, anterior cingulate cortex, baseline to blocking with SSR504734 4.5 mg/kg",41.9%
same,VT (baseline) CAU,"GlyT1 [2]; rhesus monkey 2, caudate",17.0
same,VT (Blocking (4.5 mg/kg)) CAU,"GlyT1 [2]; rhesus monkey 2, caudate, after SSR504734 4.5 mg/kg",9.2
same,% decrease of VT CAU,"GlyT1 [2]; rhesus monkey 2, caudate, baseline to blocking with SSR504734 4.5 mg/kg",45.9%
same,VT (baseline) CB,"GlyT1 [2]; rhesus monkey 2, cerebellum",12.8
same,VT (Blocking (4.5 mg/kg)) CB,"GlyT1 [2]; rhesus monkey 2, cerebellum, after SSR504734 4.5 mg/kg",9.0
same,% decrease of VT CB,"GlyT1 [2]; rhesus monkey 2, cerebellum, baseline to blocking with SSR504734 4.5 mg/kg",29.7%
same,VT (baseline) FC,"GlyT1 [2]; rhesus monkey 2, frontal cortex",14.3
same,VT (Blocking (4.5 mg/kg)) FC,"GlyT1 [2]; rhesus monkey 2, frontal cortex, after SSR504734 4.5 mg/kg",8.6
same,% decrease of VT FC,"GlyT1 [2]; rhesus monkey 2, frontal cortex, baseline to blocking with SSR504734 4.5 mg/kg",39.9%
same,VT (baseline) Pons,"GlyT1 [2]; rhesus monkey 2, pons",16.9
same,VT (Blocking (4.5 mg/kg)) Pons,"GlyT1 [2]; rhesus monkey 2, pons, after SSR504734 4.5 mg/kg",10.9
same,% decrease of VT Pons,"GlyT1 [2]; rhesus monkey 2, pons, baseline to blocking with SSR504734 4.5 mg/kg",35.5%
same,VT (baseline) PUT,"GlyT1 [2]; rhesus monkey 2, putamen",15.8
same,VT (Blocking (4.5 mg/kg)) PUT,"GlyT1 [2]; rhesus monkey 2, putamen, after SSR504734 4.5 mg/kg",10.1
same,% decrease of VT PUT,"GlyT1 [2]; rhesus monkey 2, putamen, baseline to blocking with SSR504734 4.5 mg/kg",36.1%
same,VT (baseline) TC,"GlyT1 [2]; rhesus monkey 2, temporal cortex",12.3
same,VT (Blocking (4.5 mg/kg)) TC,"GlyT1 [2]; rhesus monkey 2, temporal cortex, after SSR504734 4.5 mg/kg",8.9
same,% decrease of VT TC,"GlyT1 [2]; rhesus monkey 2, temporal cortex, baseline to blocking with SSR504734 4.5 mg/kg",27.6%
same,VT (baseline) THA,"GlyT1 [2]; rhesus monkey 2, thalamus",15.7
same,VT (Blocking (4.5 mg/kg)) THA,"GlyT1 [2]; rhesus monkey 2, thalamus, after SSR504734 4.5 mg/kg",11.9
same,% decrease of VT THA,"GlyT1 [2]; rhesus monkey 2, thalamus, baseline to blocking with SSR504734 4.5 mg/kg",24.2%
same,VT (baseline) WB,"GlyT1 [2]; rhesus monkey 2, whole brain",12.6
same,VT (Blocking (4.5 mg/kg)) WB,"GlyT1 [2]; rhesus monkey 2, whole brain, after SSR504734 4.5 mg/kg",8.5
same,% decrease of VT WB,"GlyT1 [2]; rhesus monkey 2, whole brain, baseline to blocking with SSR504734 4.5 mg/kg",32.5%
same,VND,"GlyT1 [3]; baseline + blocking 1.5 mg/kg SSR504734, rhesus monkey 1, one value for all regions",16.5
same,VND,"GlyT1 [3]; baseline + blocking 4.5 mg/kg SSR504734, rhesus monkey 2, one value for all regions",7.5
same,% of VND in VT ACC,GlyT1 [3]; [5],59%
same,% of VND in VT CAU,"GlyT1 [3]; baseline + blocking (1.5 mg/kg), caudate",55%
same,% of VND in VT CB,"GlyT1 [3]; baseline + blocking (1.5 mg/kg), cerebellum",50%
same,% of VND in VT FC,GlyT1 [3]; [5],52%
same,% of VND in VT Pons,"GlyT1 [3]; baseline + blocking (1.5 mg/kg), pons",66%
same,% of VND in VT PUT,GlyT1 [3]; [5],55%
same,% of VND in VT TC,GlyT1 [3]; [5],54%
same,% of VND in VT ACC,GlyT1 [3]; [6],52%
same,% of VND in VT FC,GlyT1 [3]; [6],48%
same,% of VND in VT PUT,GlyT1 [3]; [6],53%
same,% of VND in VT TC,GlyT1 [3]; [6],39%
same,metabolites detected in the plasma,"[4]; radiochromatograms, 4 and 90 min",more hydrophilic metabolites
same,fraction metabolized in plasma,[4]; within 90 min after injection,over 70%

# Source: paper PMC3531252 (EJNMMI Research, 2012)
